19 molecules from patent US8349827B2, “Substituted dipyrido-pyrimido-diazepine and benzo-pyrido-pyrimido compounds” (ArQule, Inc., priority 2009, dated 2013) can be followed below.

In one data set the test system is DLD-1. In words: MTS assay, DLD-1 cells. Format: cell-based. The settings on record: Homo sapiens, 72 hours. The essentials: (§1)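 First, seed 3000 cells per well in low-serum (1% FBS) DMEM and culture 18 h. Next, add compounds prepared at 300× in DMSO and diluted 1:40 in DMEM; incubate 72 h. Finally, add MTS/PMS for 4 h and measure absorbance at 492 nm.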
In general terms: Tetrazolium dyes change colour on reduction, which living cells bring about.

A further data set concerns KATO III. In words: MTS assay, KATO III cells. Format: cell-based. The settings on record: Homo sapiens, 72 hours. The gist of the method: as §1
The next data set deals with MDA-MB-231. Put plainly: MTS assay, MDA-MB-231 cells. Format: cell-based. The settings on record: Homo sapiens, 72 hours. The essentials: as §1
The next data set concerns NCI-H1299. In words: MTS assay, NCI-H1299 cells. Format: cell-based. The settings on record: Homo sapiens, 72 hours. The essentials:
as §1

The subject of another data set is PC-3. Put plainly: MTS assay, PC-3 cells. Format: cell-based. The settings on record: Homo sapiens, 72 hours. The essentials: as §1
The test system of a further data set is PACA-2. Put plainly: MTS assay, PACA-2 cells. Conditions: 72 hours. Format: cell-based. The gist of the method: as §1
A further data set addresses ABL T315I (Homo sapiens, UniProt P00519, T315I). Put plainly: ABL Kinase Activity Assay (Elisa), ABL T315I. The settings on record: ATP 100 μM, read-out: Abl(T315I) Enzymetic assay (Elisa) % inhibition. Format: biochemical. The essentials: (§2)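 Recombinant ABL or ABL T315I (0.089 nM final) preincubated 20 min with compound, then reacted 1 h at room temperature with 100 μM ATP and 128 nM biotinylated AblTide in Tris pH 7.0/MgCl2 buffer. Phosphopeptide captured on streptavidin and detected by anti-phosphotyrosine ELISA with alkaline phosphatase secondary and Attophos fluorescence.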

The target of the next data set is ABL (Homo sapiens, UniProt P00519). In words: ABL Kinase Activity Assay (Elisa), ABL. Format: biochemical. Conditions: ATP 100 μM, read-out: Abl Enzymetic assay (Elisa) % inhibition. The essentials: as §2

Counter-ions that a name gives are not always drawn.

The inhibition is the share of the control response that was lost under treatment. As usually defined, the melting point is the temperature, or range, at which the solid turns liquid. `c1ccc(-c2ncc3c(n2)-c2cccnc2Nc2cnccc2-3)cc1` [Example 54, 2-phenyl-9H-dipyrido[2,3-b:4′,3′-f]pyrimido[4,5-d]azepine] displayed a melting point above 300 °C. The same molecule registered an inhibition at 10 µM in the data set with DLD-1 below 50%. Further, in the data set on KATO III, the inhibition at 10 µM was below 50%. In addition, in the data set with MDA-MB-231, the inhibition at 10 µM was below 50%. This molecule also had an inhibition at 10 µM with NCI-H1299 below 50%. This molecule yielded an inhibition at 10 µM in the data set with PC-3 below 50%.

Turning to `CN(C)CCCCNc1ncc2c(n1)-c1cccnc1Nc1cnccc1-2` (as salt: TFA) [Example 51, N′-9H-dipyrido[2,3-b:4′,3′-f]pyrimido[4,5-d]azepin-2-yl-N,N-dimethylbutane-1,4-diamine], the melting point was in the range of 154 to 156 °C.

For `COc1ccc(CCNc2ncc3c(n2)-c2cccnc2Nc2cnccc2-3)cc1OC` [Example 14, N-[2-(3,4-dimethoxyphenyl)ethyl]-9H-dipyrido[2,3-b:4′,3′-f]pyrimido[4,5-d]azepin-2-amine], the inhibition at 10 µM in the data set on DLD-1, in the data set with KATO III, with MDA-MB-231, in the data set with NCI-H1299, in the data set with PACA-2 and in the data set on PC-3 was below 50% each time. Further, the inhibition at 10 µM at ABL T315I and on ABL was 80 to 100% each time.

Consider `Fc1ccc(CNc2ncc3c(n2)-c2cccnc2Nc2cnccc2-3)cc1F` [Example 33, N-(3,4-difluorobenzyl)-9H-dipyrido[2,3-b:4′,3′-f]pyrimido[4,5-d]azepin-2-amine], for which the inhibition at 10 µM in the data set with DLD-1, with KATO III, in the data set on MDA-MB-231, with NCI-H1299, with PACA-2 and in the data set with PC-3 was 80 to 100% each time. The inhibition at 10 µM at ABL T315I and at ABL was 80 to 100% throughout.

`Fc1ccc(CNc2ncc3c(n2)-c2cccnc2Nc2cnccc2-3)c(F)c1` [Example 2, N-(2,4-difluorobenzyl)-9H-dipyrido[2,3-b:4′,3′-f]pyrimido[4,5-d]azepin-2-amine] registered a melting point of 264 to 266 °C. The molecule also had an inhibition at 10 µM in the data set on DLD-1 below 50%. The inhibition at 10 µM in the data set on KATO III is 50 to 79%. In addition, in the data set on MDA-MB-231, the inhibition at 10 µM was below 50%. In the data set with NCI-H1299, this molecule registered an inhibition at 10 µM of 50 to 79%. Also, in the data set on PACA-2, the inhibition at 10 µM was below 50%. For the same molecule, the inhibition at 10 µM on ABL T315I lay within 80 to 100%. For the same molecule, the inhibition at 10 µM at ABL lay in the range of 80 to 100%.

For `OCCc1ccc(Nc2ncc3c(n2)-c2cccnc2Nc2ccccc2-3)cc1` [Example 63, 2-[4-(9H-pyrido[2,3-b]pyrimido[4,5-d][1]benzazepin-2-ylamino)phenyl]ethanol], the inhibition at 10 µM in the data set on DLD-1 is 50 to 79%; with KATO III, 50 to 79%; in the data set with MDA-MB-231 it was below 50%; in the data set on NCI-H1299, below 50%; with PACA-2 it was 80 to 100%; with PC-3 it was 50 to 79%. Moreover, the inhibition at 10 µM at ABL T315I and at ABL was below 50% in each case.

Take `COc1ccc(CCNc2ncc3c(n2)-c2cccnc2Nc2cnccc2-3)cc1` [Example 42, N-[2-(4-methoxyphenyl)ethyl]-9H-dipyrido[2,3-b:4′,3′-f]pyrimido[4,5-d]azepin-2-amine]: the inhibition at 10 µM with DLD-1 is 50 to 79%; with KATO III, 80 to 100%; in the data set with MDA-MB-231, below 50%; in the data set on NCI-H1299, below 50%; with PACA-2, below 50%; with PC-3 it was below 50%. Besides, the inhibition at 10 µM at ABL T315I and on ABL was 80 to 100% each time.

Take `c1cnc2c(c1)-c1nc(NC3CCNCC3)ncc1-c1ccncc1N2` (as salt: TFA) [Example 59, N-piperidin-4-yl-9H-dipyrido[2,3-b:4′,3′-f]pyrimido[4,5-d]azepin-2-amine]: the melting point lay within 189 to 191 °C.

Take `Fc1ccc(CNc2ncc3c(n2)-c2cccnc2Nc2cnccc2-3)cc1` [Example 11, N-(4-fluorobenzyl)-9H-dipyrido[2,3-b:4′,3′-f]pyrimido[4,5-d]azepin-2-amine]: the inhibition at 10 µM in the data set with DLD-1, with KATO III, in the data set on MDA-MB-231, with NCI-H1299, in the data set with PACA-2 and with PC-3 was 80 to 100% in each case. Besides, the inhibition at 10 µM on ABL T315I and at ABL was 80 to 100% throughout.

Take `Clc1cccc(CNc2ncc3c(n2)-c2cccnc2Nc2cnccc2-3)c1` [Example 1, N-(3-chlorobenzyl)-9H-dipyrido[2,3-b:4′,3′-f]pyrimido[4,5-d]azepin-2-amine]: the melting point is 195 to 196 °C. This molecule also gave an inhibition at 10 µM in the data set on DLD-1 of 50 to 79%. This molecule also had an inhibition at 10 µM with KATO III of 80 to 100%. In addition, the inhibition at 10 µM with MDA-MB-231 is below 50%. Further, the inhibition at 10 µM in the data set on NCI-H1299 was 50 to 79%. Moreover, the inhibition at 10 µM in the data set with PACA-2 is below 50%. Moreover, the inhibition at 10 µM on ABL T315I fell in the range of 80 to 100%. Also, on ABL, the inhibition at 10 µM was in the range of 80 to 100%.

In the case of `CCCC(C)Nc1ncc2c(n1)-c1cccnc1Nc1cnccc1-2` (stereo not drawn) [Example 5, N-(1-methylbutyl)-9H-dipyrido[2,3-b:4′,3′-f]pyrimido[4,5-d]azepin-2-amine], the inhibition at 10 µM in the data set with DLD-1 was below 50%; in the data set with KATO III, 50 to 79%; with MDA-MB-231, below 50%; in the data set with NCI-H1299 it was below 50%; with PACA-2, below 50%; in the data set with PC-3, below 50%. In addition, the inhibition at 10 µM at ABL T315I and at ABL was 80 to 100% in each case.

For the molecule `COc1cccc(CCNc2ncc3c(n2)-c2cccnc2Nc2cnccc2-3)c1` [Example 24, N-[2-(3-methoxyphenyl)ethyl]-9H-dipyrido[2,3-b:4′,3′-f]pyrimido[4,5-d]azepin-2-amine], the inhibition at 10 µM was below 50% in the data set with DLD-1; 50 to 79% in the data set on KATO III; below 50% in the data set with MDA-MB-231; below 50% with NCI-H1299; below 50% with PACA-2; below 50% in the data set on PC-3. For the same molecule, the inhibition at 10 µM on ABL T315I and at ABL was 80 to 100% in each case.

The molecule `CN(C)CCCCCNc1ncc2c(n1)-c1cccnc1Nc1cnccc1-2` (as salt: TFA) [Example 48, N′-9H-dipyrido[2,3-b:4′,3′-f]pyrimido[4,5-d]azepin-2-yl-N,N-dimethylpentane-1,5-diamine] gave a melting point of 133 to 136 °C.

On to `c1ccc(OCCNc2ncc3c(n2)-c2cccnc2Nc2cnccc2-3)cc1` [Example 26, N-(2-phenoxyethyl)-9H-dipyrido[2,3-b:4′,3′-f]pyrimido[4,5-d]azepin-2-amine], for which the inhibition at 10 µM in the data set on DLD-1 is below 50%; with KATO III, 50 to 79%; with MDA-MB-231, below 50%; in the data set with NCI-H1299, below 50%; with PACA-2, below 50%; in the data set with PC-3, below 50%. Further, the inhibition at 10 µM at ABL T315I and on ABL was 80 to 100% each time.

With `Cc1ccccc1CCNc1ncc2c(n1)-c1cccnc1Nc1cnccc1-2` [Example 15, N-[2-(2-methylphenyl)ethyl]-9H-dipyrido[2,3-b:4′,3′-f]pyrimido[4,5-d]azepin-2-amine], the inhibition at 10 µM in the data set on DLD-1 is below 50%; in the data set with KATO III it was 50 to 79%; with MDA-MB-231, below 50%; with NCI-H1299 it was below 50%; with PACA-2, below 50%; in the data set with PC-3, below 50%. For the same molecule, the inhibition at 10 µM on ABL T315I and on ABL was 80 to 100% throughout.

As to `O[C@H]1CC[C@H](Nc2ncc3c(n2)-c2cccnc2Nc2cnccc2-3)CC1` [Example 27, trans-4-(9H-dipyrido[2,3-b:4′,3′-f]pyrimido[4,5-d]azepin-2-ylamino)cyclohexanol], the inhibition at 10 µM was below 50% in the data set on DLD-1; 80 to 100% in the data set on KATO III; 50 to 79% with MDA-MB-231; below 50% in the data set on NCI-H1299; below 50% in the data set with PACA-2; 50 to 79% in the data set with PC-3. For the same molecule, the inhibition at 10 µM at ABL T315I and on ABL was 80 to 100% throughout.

Turning to `CN(C)CCCNc1ncc2c(n1)-c1cccnc1Nc1cnccc1-2` (as salt: TFA) [Example 50, N′-9H-dipyrido[2,3-b:4′,3′-f]pyrimido[4,5-d]azepin-2-yl-N,N-dimethylpropane-1,3-diamine], the melting point is above 253 °C.

For `c1cnc2c(c1)-c1nc(NCC3CCNCC3)ncc1-c1ccncc1N2` (as salt: TFA) [Example 60, N-(piperidin-4-ylmethyl)-9H-dipyrido[2,3-b:4′,3′-f]pyrimido[4,5-d]azepin-2-amine], the melting point lay within 151 to 153 °C.

The molecule `c1ccc(CNc2ncc3c(n2)-c2cccnc2Nc2cnccc2-3)nc1` (as salt: TFA) [Example 49, N-(pyridin-2-ylmethyl)-9H-dipyrido[2,3-b:4′,3′-f]pyrimido[4,5-d]azepin-2-amine] had a melting point of 253 to 255 °C.
